For test [1], the target named is T1, human GLP1 receptor (Homo sapiens, UniProt P43220).
T1 construct: expressed in transfected cells; host or cells: HEK cells, BacMam virus transduction
The experiment in a line: cAMP accumulation assay (HTRF), functional agonism of human GLP1 receptor in HEK cells. The conditions noted are these: HEK cells, human GLP1 receptor BacMam, 45 min 37° C.; for Emax: HEK293, read-out: Human GLP-1R agonist cAMP Emax; for EC50: read-out: Human GLP-1R agonist cAMP pEC50 (converted). Format: cell-based.

Test [2] deals with T2, human GLP2 receptor (Homo sapiens, UniProt O95838).
T2 sequence (O95838 1-553): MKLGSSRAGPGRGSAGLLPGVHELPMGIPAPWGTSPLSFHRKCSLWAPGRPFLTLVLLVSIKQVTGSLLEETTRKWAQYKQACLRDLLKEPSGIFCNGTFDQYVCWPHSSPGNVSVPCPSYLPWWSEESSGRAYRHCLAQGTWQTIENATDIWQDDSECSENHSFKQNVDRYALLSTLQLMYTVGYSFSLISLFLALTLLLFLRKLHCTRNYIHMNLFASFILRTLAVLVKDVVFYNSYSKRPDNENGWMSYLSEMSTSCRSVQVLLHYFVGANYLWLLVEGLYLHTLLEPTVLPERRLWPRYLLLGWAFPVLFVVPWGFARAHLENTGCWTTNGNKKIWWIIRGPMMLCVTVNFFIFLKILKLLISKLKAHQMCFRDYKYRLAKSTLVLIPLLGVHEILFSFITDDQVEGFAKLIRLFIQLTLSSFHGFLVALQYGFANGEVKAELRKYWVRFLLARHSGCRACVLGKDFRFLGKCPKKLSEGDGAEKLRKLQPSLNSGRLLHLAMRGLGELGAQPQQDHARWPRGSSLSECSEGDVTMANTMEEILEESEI
The experiment in a line: cAMP accumulation assay (HTRF), functional agonism of human GLP2 receptor in HEK cells.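 On all read-outs here: HEK cells transduced via BacMam to express human GLP2 receptor, agonist-stimulated cAMP measured by HTRF after 45 min at 37 °C in HBSS with 0.5 mM IBMX.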 The conditions noted are these: for Emax: HEK293, read-out: Human GLP-2R agonist cAMP Emax. Background: Changes in cAMP serve as a functional read-out for many G protein-coupled receptors.

The target in test [3] is T3, mouse GLP2 receptor (Mus musculus, UniProt Q5IXF8).
T3 construct: expressed in transfected cells; host or cells: HEK cells, transient transfection with GeneJuice
T3 sequence (Q5IXF8 1-512): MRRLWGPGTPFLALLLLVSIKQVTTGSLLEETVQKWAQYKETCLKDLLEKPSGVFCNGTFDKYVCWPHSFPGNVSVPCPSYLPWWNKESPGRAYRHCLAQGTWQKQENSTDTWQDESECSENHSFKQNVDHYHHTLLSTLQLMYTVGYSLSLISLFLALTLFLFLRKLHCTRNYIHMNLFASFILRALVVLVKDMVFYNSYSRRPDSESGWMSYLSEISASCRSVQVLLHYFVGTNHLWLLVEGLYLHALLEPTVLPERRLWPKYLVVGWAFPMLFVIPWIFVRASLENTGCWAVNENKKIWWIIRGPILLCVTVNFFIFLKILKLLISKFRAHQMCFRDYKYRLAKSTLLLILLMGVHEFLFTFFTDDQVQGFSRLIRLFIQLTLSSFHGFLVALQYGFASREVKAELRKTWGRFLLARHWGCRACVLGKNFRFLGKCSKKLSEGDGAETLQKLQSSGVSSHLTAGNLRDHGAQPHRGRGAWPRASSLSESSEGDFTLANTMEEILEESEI
Nature of the test: cAMP accumulation assay (HTRF), functional agonism of mouse GLP2 receptor in HEK cells. Format: cell-based. The conditions noted are these: HEK cells transiently transfected, 45 min 37° C.; for Emax: HEK293, read-out: Mouse GLP-2R agonist cAMP Emax; for EC50: read-out: Mouse GLP-2R agonist cAMP pEC50 (converted).

In test [4] the target is T4, mouse GLP1 receptor (Mus musculus, UniProt O35659).
T4 construct: expressed in transfected cells; host or cells: HEK cells, transient transfection with GeneJuice
T4 sequence (O35659 22-463): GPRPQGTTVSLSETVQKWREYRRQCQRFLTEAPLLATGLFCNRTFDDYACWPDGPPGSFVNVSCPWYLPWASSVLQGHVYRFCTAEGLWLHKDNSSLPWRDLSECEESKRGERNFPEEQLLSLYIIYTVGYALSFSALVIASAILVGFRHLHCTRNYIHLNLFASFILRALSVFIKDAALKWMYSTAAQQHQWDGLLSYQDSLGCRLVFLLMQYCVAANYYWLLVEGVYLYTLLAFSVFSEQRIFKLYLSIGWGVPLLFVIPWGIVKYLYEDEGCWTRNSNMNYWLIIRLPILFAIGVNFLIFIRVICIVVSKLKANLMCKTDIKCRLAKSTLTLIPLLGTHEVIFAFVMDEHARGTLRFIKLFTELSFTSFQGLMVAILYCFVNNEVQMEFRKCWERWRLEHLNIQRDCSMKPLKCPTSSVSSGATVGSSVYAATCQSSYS
The experiment in a line: cAMP accumulation assay (HTRF), functional agonism of mouse GLP1 receptor in HEK cells. The settings on record: HEK cells transiently transfected, 45 min 37° C.; for Emax: HEK293, read-out: Mouse GLP-1 R agonist cAMP Emax; for EC50: read-out: Mouse GLP-1 R agonist cAMP pEC50 (converted). Type of test: cell-based.

Non-standard residues stand in square brackets, D forms with d. Residues, ends and D or L forms follow the SMILES beside them. *: point of attachment. Malonyl(2,2-Me2,histaminyl) = CC(C)(C(=O)NCCc1cnc[nH]1)C(=O)*; Ala(1H-tetrazol-5-yl) = N[C@@H](Cc1nnn[nH]1)C(=O)O; Nle = CCCC[C@H](N)C(=O)O; Aib = CC(C)(N)C(=O)O; Alloc = C=CCOC(=O)* Where only a bound is given, the exact number is not on record here.

Experimental findings from US20230295260A1, “GLP RECEPTOR AGONISTS” (HEPTARES THERAPEUTICS LIMITED, priority 2020, published 2023) are described below.

T1 sequence (P43220 24-463): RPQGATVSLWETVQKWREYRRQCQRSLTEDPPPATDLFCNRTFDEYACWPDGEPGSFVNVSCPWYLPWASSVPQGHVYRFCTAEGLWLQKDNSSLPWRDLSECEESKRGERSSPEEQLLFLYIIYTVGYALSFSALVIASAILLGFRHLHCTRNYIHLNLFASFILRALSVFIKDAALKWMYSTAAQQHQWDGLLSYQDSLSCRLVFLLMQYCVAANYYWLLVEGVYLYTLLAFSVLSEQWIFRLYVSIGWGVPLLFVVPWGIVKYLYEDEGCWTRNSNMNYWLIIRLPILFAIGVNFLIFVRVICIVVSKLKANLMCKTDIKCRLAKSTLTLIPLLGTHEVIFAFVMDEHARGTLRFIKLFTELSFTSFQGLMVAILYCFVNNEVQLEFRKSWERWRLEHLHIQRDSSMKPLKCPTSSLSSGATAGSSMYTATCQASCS

Turning to `C=CCOC(=O)NCCCC[C@H](NC(=O)[C@H](CC(C)C)NC(=O)[C@H](CC(=O)O)NC(=O)[C@H](CC(C)C)NC(=O)C(C)(C)NC(=O)[C@@H](NC(=O)[C@@H](Cc1ccccc1)NC(=O)[C@H](CCCC)NC(=O)[C@H](CCC(=O)O)NC(=O)[C@H](CC(=O)O)NC(=O)[C@H](CO)NC(=O)[C@H](Cc1ccccc1)NC(=O)[C@H](CO)NC(=O)CNC(=O)[C@H](Cc1nn[nH]n1)NC(=O)C(C)(C)C(=O)NCCc1c[nH]cn1)[C@@H](C)O)C(=O)N[C@@H](C)C(=O)N[C@@H](C)C(=O)N[C@@H](CCCCN)C(=O)N[C@@H](CC(=O)O)C(=O)N[C@@H](Cc1ccccc1)C(=O)N[C@H](C(=O)N[C@@H](CC(N)=O)C(=O)N[C@@H](Cc1c[nH]c2ccccc12)C(=O)N[C@@H](CC(C)C)C(=O)N[C@H](C(=O)N[C@@H](CCC(N)=O)C(=O)N[C@H](C(=O)N[C@@H](CCCCN)C(=O)N[C@H](C(=O)N[C@H](C(=O)N[C@@H](CC(=O)O)C(N)=O)[C@@H](C)O)[C@@H](C)CC)[C@@H](C)O)[C@@H](C)CC)[C@@H](C)CC` [Example 17] ({Malonyl(2,2-Me2,histaminyl)}-[Ala(1H-tetrazol-5-yl)]GSFSDE[Nle][dF]T[Aib]LDLK(Alloc)AAKDFINWLIQTKITD-NH2), the Emax (in general, the size of the effect at its maximum, as opposed to the concentration needed) in test [1] was 93.7%; in test [2], 101%; in test [3], 100%; in test [4], 94.9%. For the same compound, the EC50 in test [1] was 0.794 nM; in test [2], 0.00501 nM; in test [3] it was 0.794 nM; in test [4], 0.631 nM.

Consider `CCCC[C@H](NC(=O)[C@H](CCC(=O)O)NC(=O)[C@H](CC(=O)O)NC(=O)[C@H](CO)NC(=O)[C@H](Cc1ccccc1)NC(=O)[C@H](CO)NC(=O)CNC(=O)[C@H](CC(=O)O)NC(=O)CNC(=O)[C@@H](N)Cc1cnc[nH]1)C(=O)N[C@H](Cc1ccccc1)C(=O)N[C@H](C(=O)N[C@H](C(=O)N[C@@H](CC(C)C)C(=O)N[C@@H](CC(=O)O)C(=O)N[C@@H](CC(C)C)C(=O)N[C@@H](CC(C)C)C(=O)N[C@@H](C)C(=O)N[C@@H](C)C(=O)N[C@@H](CCCNC(=N)N)C(=O)N[C@@H](CC(=O)O)C(=O)N[C@@H](Cc1ccccc1)C(=O)N[C@H](C(=O)N[C@@H](CC(N)=O)C(=O)N[C@@H](Cc1c[nH]c2ccccc12)C(=O)N[C@@H](CC(C)C)C(=O)N[C@H](C(=O)N[C@@H](CCC(N)=O)C(=O)N[C@H](C(=O)N[C@@H](CCCCN)C(=O)N[C@H](C(=O)N[C@H](C(=O)N[C@@H](CC(=O)O)C(N)=O)[C@@H](C)O)[C@@H](C)CC)[C@@H](C)O)[C@@H](C)CC)[C@@H](C)CC)[C@@H](C)CC)[C@@H](C)O` [FE-203799, reference compound] (H-HGDGSFSDE[Nle][dF]TILDLLAARDFINWLIQTKITD-NH2), for which the maximal effect (Emax) amounted to 61.4% in test [1], 101% in test [2], 98.1% in test [3] and 53.4% in test [4]. Also, the EC50 in test [1] is 158 nM; in test [2], 0.0158 nM; in test [3] it was 0.0316 nM; in test [4] it was over 50.1 nM.

As for `C=CCOC(=O)NCCCC[C@H](NC(=O)[C@H](CC(C)C)NC(=O)[C@H](CC(=O)O)NC(=O)[C@H](CC(C)C)NC(=O)[C@@H](NC(=O)[C@@H](NC(=O)[C@@H](Cc1ccccc1)NC(=O)[C@H](CCCC)NC(=O)[C@H](CCC(=O)O)NC(=O)[C@H](CC(=O)O)NC(=O)[C@H](CO)NC(=O)[C@H](Cc1ccccc1)NC(=O)[C@H](CO)NC(=O)[C@H](C)NC(=O)[C@H](Cc1nn[nH]n1)NC(=O)C(C)(C)C(=O)NCCc1c[nH]cn1)[C@@H](C)O)[C@@H](C)CC)C(=O)N[C@@H](C)C(=O)N[C@@H](C)C(=O)N[C@@H](CCCCN)C(=O)N[C@@H](CC(=O)O)C(=O)N[C@@H](Cc1ccccc1)C(=O)N[C@H](C(=O)N[C@@H](CC(N)=O)C(=O)N[C@@H](Cc1c[nH]c2ccccc12)C(=O)N[C@@H](CC(C)C)C(=O)N[C@H](C(=O)N[C@@H](CCC(N)=O)C(=O)N[C@H](C(=O)N[C@@H](CCCCN)C(=O)N[C@H](C(=O)N[C@H](C(=O)N[C@@H](CC(=O)O)C(N)=O)[C@@H](C)O)[C@@H](C)CC)[C@@H](C)O)[C@@H](C)CC)[C@@H](C)CC` [Example 12] ({Malonyl(2,2-Me2,histaminyl)}-[Ala(1H-tetrazol-5-yl)]ASFSDE[Nle][dF]TILDLK(Alloc)AAKDFINWLIQTKITD-NH2), the maximum response (Emax) in test [1] came to 81.1%; in test [2], 102%; in test [3], 100%; in test [4], 83.3%.

For the compound `C=CCOC(=O)NCCCC[C@H](NC(=O)[C@H](CC(C)C)NC(=O)[C@H](CC(=O)O)NC(=O)[C@H](CC(C)C)NC(=O)[C@@H](NC(=O)[C@@H](NC(=O)[C@@H](Cc1ccccc1)NC(=O)[C@H](CCCC)NC(=O)[C@H](CCC(=O)O)NC(=O)[C@H](CC(=O)O)NC(=O)[C@H](CO)NC(=O)[C@H](Cc1ccccc1)NC(=O)[C@H](CO)NC(=O)CNC(=O)[C@H](Cc1nn[nH]n1)NC(=O)C(C)(C)C(=O)NCCc1c[nH]cn1)[C@@H](C)O)[C@@H](C)CC)C(=O)N[C@@H](C)C(=O)N[C@@H](C)C(=O)N[C@@H](CCCCN)C(=O)N[C@@H](CC(=O)O)C(=O)N[C@@H](Cc1ccccc1)C(=O)N[C@H](C(=O)N[C@@H](CC(N)=O)C(=O)N[C@@H](Cc1c[nH]c2ccccc12)C(=O)N[C@@H](CC(C)C)C(=O)N[C@H](C(=O)N[C@@H](CCC(N)=O)C(=O)N[C@H](C(=O)N[C@@H](CCCCN)C(=O)N[C@H](C(=O)N[C@H](C(=O)N[C@@H](Cc1ccccc1)C(N)=O)[C@@H](C)O)[C@@H](C)CC)[C@@H](C)O)[C@@H](C)CC)[C@@H](C)CC` [Example 2] ({Malonyl(2,2-Me2,histaminyl)}-[Ala(1H-tetrazol-5-yl)]GSFSDE[Nle][dF]TILDLK(Alloc)AAKDFINWLIQTKITF-NH2), the maximal response (Emax) in test [1] is 94.7%; in test [2], 101%; in test [3] it was 106%; in test [4] it was 96.1%. In addition, the EC50 is 7.94 nM in test [1], 0.0316 nM in test [2], 3.98 nM in test [3] and 25.1 nM in test [4].
